Experimental data from PubChem BioAssay AID256 (DTP/NCI, 2004).
Several values for one entry are separate records, joined by “and”; a condition that tells them apart may be missing. Identical values can stand only once. Inconclusive results and toxic doses are left out. Rule for the calls: active = survival T/C of 150% or more; inactive = T/C below 125% in these data.

Test system: CD2F1 mice, L1210 leukemia ip, survival T/C
Assay: NCI In Vivo Anticancer Drug Screen. Data for tumor model L1210 Leukemia (intraperitoneal) in CD2F1 (CDF1) mice
Settings: higher = longer survival
Summary of the method: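 Vehicle-treated tumor-bearing mice served as controls (C) for compound-treated mice (T). Reported figure is T divided by C.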

[1] = endpoint: mean survival time, dose: 100.0 mg/kg/injection, schedule: Q01DX001 (ip), vehicle: saline
[2] = endpoint: mean survival time, dose: 100.0 mg/kg/injection, schedule: Q04DX003 (ip), vehicle: saline
[3] = endpoint: mean survival time, dose: 200.0 mg/kg/injection, schedule: Q01DX001 (ip), vehicle: saline
[4] = endpoint: mean survival time, dose: 200.0 mg/kg/injection, schedule: Q04DX003 (ip), vehicle: saline
[5] = endpoint: mean survival time, dose: 400.0 mg/kg/injection, schedule: Q01DX001 (ip), vehicle: saline
[6] = endpoint: mean survival time, dose: 400.0 mg/kg/injection, schedule: Q04DX003 (ip), vehicle: saline
[7] = endpoint: mean survival time, dose: 75.0 mg/kg/injection, schedule: Q01DX001 (ip), vehicle: other
[8] = endpoint: mean survival time, dose: 150.0 mg/kg/injection, schedule: Q01DX001 (ip), vehicle: other
[9] = endpoint: mean survival time, dose: 300.0 mg/kg/injection, schedule: Q01DX001 (ip), vehicle: other
[10] = endpoint: mean survival time, dose: 25.0 mg/kg/injection, schedule: Q04DX002 (ip), vehicle: saline with Tween-80
[11] = endpoint: mean survival time, dose: 50.0 mg/kg/injection, schedule: Q04DX002 (ip), vehicle: saline with Tween-80
[12] = endpoint: mean survival time, dose: 100.0 mg/kg/injection, schedule: Q01DX009 (ip), vehicle: saline with Tween-80
[13] = endpoint: mean survival time, dose: 200.0 mg/kg/injection, schedule: Q01DX009 (ip), vehicle: saline with Tween-80
[14] = endpoint: mean survival time, dose: 400.0 mg/kg/injection, schedule: Q01DX009 (ip), vehicle: saline with Tween-80
[15] = endpoint: mean survival time, dose: 100.0 mg/kg/injection, schedule: Q04DX003 (ip), vehicle: saline with Tween-80
[16] = endpoint: mean survival time, dose: 200.0 mg/kg/injection, schedule: Q04DX003 (ip), vehicle: saline with Tween-80
[17] = endpoint: mean survival time, dose: 400.0 mg/kg/injection, schedule: Q04DX003 (ip), vehicle: saline with Tween-80
[18] = endpoint: mean survival time, dose: 100.0 mg/kg/injection, schedule: Q01DX001 (ip), vehicle: saline with Tween-80
[19] = endpoint: mean survival time, dose: 200.0 mg/kg/injection, schedule: Q01DX001 (ip), vehicle: saline with Tween-80
[20] = endpoint: mean survival time, dose: 400.0 mg/kg/injection, schedule: Q01DX001 (ip), vehicle: saline with Tween-80
[21] = endpoint: mean survival time, dose: 200.0 mg/kg/injection, schedule: Q01DX009 (ip), vehicle: saline
[22] = endpoint: mean survival time, dose: 12.5 mg/kg/injection, schedule: Q01DX005 (ip), vehicle: water
[23] = endpoint: mean survival time, dose: 25.0 mg/kg/injection, schedule: Q01DX005 (ip), vehicle: water
[24] = endpoint: mean survival time, dose: 50.0 mg/kg/injection, schedule: Q01DX009 (ip), vehicle: saline with Tween-80
[25] = endpoint: mean survival time, dose: 12.5 mg/kg/injection, schedule: Q01DX009 (ip), vehicle: saline with Tween-80
[26] = endpoint: mean survival time, dose: 25.0 mg/kg/injection, schedule: Q01DX009 (ip), vehicle: saline with Tween-80
[27] = endpoint: mean survival time, dose: 25.0 mg/kg/injection, schedule: Q04DX003 (ip), vehicle: saline with Tween-80
[28] = endpoint: mean survival time, dose: 50.0 mg/kg/injection, schedule: Q04DX003 (ip), vehicle: saline with Tween-80

Measured: T/C

COc1cccc(CO)c1Oc1ccc(C)cc1
inactive: [1] 102 % of control | [2] 89 % of control | [3] 105 % of control | [4] 89 % of control | [5] 100 % of control | [6] 89 % of control

O=C(C=[As](c1ccccc1)(c1ccccc1)c1ccccc1)c1ccccc1
inactive: [7] 91 % of control | [8] 100 % of control | [9] 91 % of control

O=C(c1ccccc1)c1ccsc1C(=O)O
inactive: [10] 96 % of control | [11] 96 % of control

CC(=O)/C(N=Nc1ccc(S(=O)(=O)c2ccc(N=N/C(C(C)=O)=C(/C)O)cc2)cc1)=C(\C)O
inactive: [12] 86 % of control | [13] 86 % of control | [14] 102 % of control

CCSC(=N)N
inactive: [2] 94 % of control | [4] 91 % of control | [6] 97 % of control

CSc1cc(C)c(O)c(C)c1
inactive: [15] 100 % of control | [16] 104 % of control | [17] 102 % of control

O=C(Nc1ccccc1[N+](=O)[O-])c1ccccc1
inactive: [18] 97 % of control | [15] 102 % of control | [19] 100 % of control | [16] 105 % of control | [20] 95 % of control | [17] 97 % of control

CCCCCCn1ncc(=O)[nH]c1=O
inactive: endpoint: mean survival time, dose: 12.5 mg/kg/injection, schedule: Q01DX009 (ip), vehicle: saline 101 % of control and 102 % of control (2×) | endpoint: mean survival time, dose: 25.0 mg/kg/injection, schedule: Q01DX009 (ip), vehicle: saline 93 % of control and 98 % of control and 101 % of control | [21] 96 % of control

O=c1cc(Nc2ccc(Br)cc2)[nH]c(=O)[nH]1
inactive: endpoint: mean survival time, dose: 100.0 mg/kg/injection, schedule: Q01DX001 (ip), vehicle: other 92 % of control | endpoint: mean survival time, dose: 200.0 mg/kg/injection, schedule: Q01DX001 (ip), vehicle: other 92 % of control

Nc1cc(OCc2ccccc2)c(N)c(N)n1
inactive: endpoint: mean survival time, dose: 1.56 mg/kg/injection, schedule: Q01DX005 (ip), vehicle: water 98 % of control | endpoint: mean survival time, dose: 3.13 mg/kg/injection, schedule: Q01DX005 (ip), vehicle: water 97 % of control | endpoint: mean survival time, dose: 6.25 mg/kg/injection, schedule: Q01DX005 (ip), vehicle: water 98 % of control | [22] 98 % of control | [23] 97 % of control

CCC(C)N(C)/N=N/c1nc[nH]c1C(N)=O (stereo not given)
inactive: [13] 104 % of control

C=CCN(CC=C)C(=O)NCC(=O)OCC
inactive: [24] 101 % of control | [12] 95 % of control | [13] 97 % of control

[O]=[Mo]
inactive: [2] 107 % of control

CC(O)c1cccc([N+](=O)[O-])c1 (stereo not given)
inactive: [18] 93 % of control | [19] 97 % of control | [20] 93 % of control

CCOC(=O)C(=CC(C(=O)OCC)C(=O)OCC)C(=O)OCC
inactive: [18] 93 % of control | [19] 104 % of control | [20] 96 % of control

Clc1nnc(-c2ccccc2)s1
inactive: [15] 101 % of control | [16] 91 % of control

Clc1nc(Cl)nc(-c2cccn2-c2ccccc2)n1
inactive: [12] 93 % of control | [15] 102 % of control | [16] 108 % of control | [17] 115 % of control

Cc1ccc(S(=O)(=O)OC2(c3ccc(C(F)(F)F)cc3)C3CCC2CC3)cc1 (stereo not given)
inactive: endpoint: mean survival time, dose: 12.5 mg/kg/injection, schedule: Q04DX002 (ip), vehicle: saline with Tween-80 104 % of control | [10] 101 % of control | [11] 104 % of control

O=C1CCCCCN1C(=O)c1ccccc1
inactive: endpoint: mean survival time, dose: 50.0 mg/kg/injection, schedule: Q01DX009 (ip), vehicle: other 105 % of control | endpoint: mean survival time, dose: 100.0 mg/kg/injection, schedule: Q01DX009 (ip), vehicle: other 97 % of control | endpoint: mean survival time, dose: 200.0 mg/kg/injection, schedule: Q01DX009 (ip), vehicle: other 105 % of control

CC(Cc1ccc2c(c1)OCO2)NCC(O)c1ccc(O)c(O)c1 (stereo not given)
inactive: [1] 103 % of control | [3] 109 % of control

CS(=O)(=O)c1cc([N+](=O)[O-])cc([N+](=O)[O-])c1Cl
inactive: endpoint: mean survival time, dose: 2.5 mg/kg/injection, schedule: Q01DX009 (ip), vehicle: saline with Tween-80 95 % of control | endpoint: mean survival time, dose: 5.0 mg/kg/injection, schedule: Q01DX009 (ip), vehicle: saline with Tween-80 91 % of control | endpoint: mean survival time, dose: 5.0 mg/kg/injection, schedule: Q04DX003 (ip), vehicle: saline with Tween-80 97 % of control | endpoint: mean survival time, dose: 10.0 mg/kg/injection, schedule: Q01DX009 (ip), vehicle: saline with Tween-80 96 % of control | endpoint: mean survival time, dose: 10.0 mg/kg/injection, schedule: Q04DX003 (ip), vehicle: saline with Tween-80 100 % of control

CC1(C)N=C(N)N=C(N)N1c1ccc(CCC(=O)Nc2ccc(S(=O)(=O)F)cc2)cc1
inactive: [25] 112 % of control | [26] 117 % of control | [1] 102 % of control | [12] 115 % of control | [3] 111 % of control | [21] 123 % of control | [5] 120 % of control | endpoint: mean survival time, dose: 400.0 mg/kg/injection, schedule: Q01DX009 (ip), vehicle: saline 123 % of control
active: endpoint: mean survival time, dose: 300.0 mg/kg/injection, schedule: Q01DX009 (ip), vehicle: saline 171 % of control

CC(C)NCC(O)c1ccc(O)c(O)c1.[Pt].c1ccc([PH+](c2ccccc2)c2ccccc2)cc1.c1ccc([PH+](c2ccccc2)c2ccccc2)cc1
inactive: endpoint: median survival time, dose: 10.0 mg/kg/injection, schedule: Q04DX003 (ip), vehicle: saline with Tween-80 108 % of control | endpoint: median survival time, dose: 20.0 mg/kg/injection, schedule: Q04DX003 (ip), vehicle: saline with Tween-80 105 % of control | endpoint: median survival time, dose: 40.0 mg/kg/injection, schedule: Q04DX003 (ip), vehicle: saline with Tween-80 105 % of control | endpoint: median survival time, dose: 50.0 mg/kg/injection, schedule: Q04DX003 (ip), vehicle: saline with Tween-80 101 % of control | endpoint: median survival time, dose: 80.0 mg/kg/injection, schedule: Q04DX003 (ip), vehicle: saline with Tween-80 102 % of control | endpoint: median survival time, dose: 100.0 mg/kg/injection, schedule: Q04DX003 (ip), vehicle: saline with Tween-80 98 % of control

COC(=O)c1ncn(C2OC(COC(C)=O)C(OC(C)=O)C2OC(C)=O)c1C(=O)OC (stereo not given)
inactive: [22] 87 % of control | [23] 94 % of control | endpoint: mean survival time, dose: 50.0 mg/kg/injection, schedule: Q01DX005 (ip), vehicle: water 90 % of control | endpoint: mean survival time, dose: 100.0 mg/kg/injection, schedule: Q01DX005 (ip), vehicle: water 100 % of control | endpoint: mean survival time, dose: 200.0 mg/kg/injection, schedule: Q01DX005 (ip), vehicle: water 96 % of control

C1C2OC2CC2OC12 (stereo not given)
inactive: [18] 97 % of control | [19] 97 % of control | [20] 98 % of control

S=C(NCCNC(=S)[S][Sn]([c]1ccccc1)([c]1ccccc1)[c]1ccccc1)[S][Sn]([c]1ccccc1)([c]1ccccc1)[c]1ccccc1
inactive: [27] 88 % of control | [28] 93 % of control | [15] 100 % of control

NC(=O)c1cc(N2CC2)c([N+](=O)[O-])cc1[N+](=O)[O-]
inactive: [26] 114 % of control | [27] 110 % of control | [24] 115 % of control | [28] 97 % of control | [15] 106 % of control

CCC(C)(O)c1ccccc1 (stereo not given)
inactive: [24] 103 % of control | [12] 100 % of control | [13] 95 % of control

COc1ccc2c(C)cc(C)nc2n1
inactive: [7] 95 % of control | [8] 104 % of control | [9] 104 % of control

S=c1[nH]c2cc(Cl)c(Cl)cc2[nH]1
inactive: [1] 100 % of control | [3] 100 % of control | [5] 102 % of control

CCOC(=O)c1cn[nH]c1/N=C/N(C)C
inactive: [18] 98 % of control | [19] 104 % of control | [20] 106 % of control

COc1ccc(C(=O)c2no[n+]([O-])c2C(=O)c2ccc(OC)cc2)cc1
inactive: [25] 100 % of control | [26] 97 % of control | [24] 101 % of control | [12] 97 % of control and 98 % of control | [13] 98 % of control and 102 % of control | [14] 97 % of control and 110 % of control
